Laboratory results from US10266564B2, “Cationic lipid cordiarimide hybrid compounds and a process for preparation thereof” (COUNCIL OF SCIENTIFIC & INDUSTRIAL RESEARCH, priority 2014, dated 2019).
Entries after “also recorded” stand apart in the source; their conditions may differ.

Columns and labels:
hLig1 = hLig1 (Homo sapiens, UniProt P18858); experiment: Kinetic analysis of ligation inhibition (Lineweaver-Burk); format: biochemical; conditions: 5 and 10 μM
Procedure: We measured the kinetics of hLig1 mediated ligation in the absence are presence of 8k at 5 and 10 μM concentrations and drew Lineweaver-Burk plots (FIG. 6B).

ligase IIIβ = target: T1, ligase IIIβ (Homo sapiens, UniProt P49916); experiment: Ligation assay, DNA ligase IIIβ; format: biochemical
T1 sequence (P49916 43-949 isoform P49916-2 limits assumed): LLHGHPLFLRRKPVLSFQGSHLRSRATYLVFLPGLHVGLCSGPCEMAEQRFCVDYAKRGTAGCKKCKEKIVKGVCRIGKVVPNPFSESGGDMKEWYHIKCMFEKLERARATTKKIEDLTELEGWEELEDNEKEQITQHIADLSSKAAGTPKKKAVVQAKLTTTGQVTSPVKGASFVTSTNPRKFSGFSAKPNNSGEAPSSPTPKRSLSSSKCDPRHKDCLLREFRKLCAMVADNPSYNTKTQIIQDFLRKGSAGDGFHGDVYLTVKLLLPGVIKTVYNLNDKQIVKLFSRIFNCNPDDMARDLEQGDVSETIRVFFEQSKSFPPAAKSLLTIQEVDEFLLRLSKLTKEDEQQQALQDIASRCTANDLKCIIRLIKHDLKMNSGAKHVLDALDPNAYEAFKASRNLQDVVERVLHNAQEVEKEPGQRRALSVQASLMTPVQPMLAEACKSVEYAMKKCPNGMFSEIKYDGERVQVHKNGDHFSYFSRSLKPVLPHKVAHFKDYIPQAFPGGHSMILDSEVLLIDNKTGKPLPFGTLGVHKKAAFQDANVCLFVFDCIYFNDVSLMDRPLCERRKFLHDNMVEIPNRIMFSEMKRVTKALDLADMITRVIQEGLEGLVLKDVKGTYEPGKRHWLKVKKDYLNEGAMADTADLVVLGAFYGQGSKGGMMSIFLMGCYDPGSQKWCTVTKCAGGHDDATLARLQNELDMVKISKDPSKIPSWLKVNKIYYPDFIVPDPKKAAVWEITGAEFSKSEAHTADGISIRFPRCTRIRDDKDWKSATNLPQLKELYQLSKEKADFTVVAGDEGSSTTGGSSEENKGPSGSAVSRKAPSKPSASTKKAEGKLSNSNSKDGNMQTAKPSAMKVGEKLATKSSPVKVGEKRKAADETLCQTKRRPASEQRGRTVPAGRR
Description: (§1) The ligation assay was done strictly following the assay protocol described in Xi Chen et. al, Cancer Res 2008; 68(9):3169-3177. The DNA molecules 52 mer (5′-3′), 28-mer (5′-3′) and 34-mer (5′-3′) were used to construct a double stranded nicked substrate for the ligase enzyme (FIG. 4). The 34-mer oligo was labelled with 32P-AMP to form a substrate for ligase and to form a ligase-AMP intermediate. During ligation, the ligase would transfer the AMP to the nick forming a phosphodiester bond and seal the nick. The ligated DNA molecule would be larger in size and run higher up on a 7% Urea-containing denaturing acrylamide gel. If an inhibitor is added to the reaction mixture prior to the addition of ligase, this would lead to an inhibition of ligation and a corresponding loss of labelled ligated product in the gel. We would then be able to calculate the percentage of inhibition of ligation by estimating the amount of ligated product in the lane with no inhibitor and comparing it with the lanes containing different inhibitor molecules or with the same inhibitor molecule at different concentrations.

caspase-3 in HepG2 cells = experiment: Caspase-3 colorimetric activation assay; format: cell-based, human; conditions: HepG2, 5 and 10 μM, 24 h
Procedure: The activity of caspase-3 was determined using a caspase-3 colorimetric assay kit (Sigma Aldrich) according to the manufacturer's protocol. Briefly, HepG2 cells (1×10^6 cells/well) were treated with 5 and 10 μM of 8i and 8k for 24 h. The cells were harvested and lysed by addition of lysis buffer. Cell lysates were mixed with colorimetric substrate (Ac-DEVD-pNA) and incubated at 37° C. in the dark for 4 h. The absorbance was measured at 405 nm in an ELISA reader. Caspase-3 activity was expressed as the change of the activity compared to the control (FIG. 3).

ligase IV = ligase IV (Homo sapiens, UniProt P49917); experiment: Ligation assay, DNA ligase IV; format: biochemical
ligase IV, sequence (P49917 whole entry): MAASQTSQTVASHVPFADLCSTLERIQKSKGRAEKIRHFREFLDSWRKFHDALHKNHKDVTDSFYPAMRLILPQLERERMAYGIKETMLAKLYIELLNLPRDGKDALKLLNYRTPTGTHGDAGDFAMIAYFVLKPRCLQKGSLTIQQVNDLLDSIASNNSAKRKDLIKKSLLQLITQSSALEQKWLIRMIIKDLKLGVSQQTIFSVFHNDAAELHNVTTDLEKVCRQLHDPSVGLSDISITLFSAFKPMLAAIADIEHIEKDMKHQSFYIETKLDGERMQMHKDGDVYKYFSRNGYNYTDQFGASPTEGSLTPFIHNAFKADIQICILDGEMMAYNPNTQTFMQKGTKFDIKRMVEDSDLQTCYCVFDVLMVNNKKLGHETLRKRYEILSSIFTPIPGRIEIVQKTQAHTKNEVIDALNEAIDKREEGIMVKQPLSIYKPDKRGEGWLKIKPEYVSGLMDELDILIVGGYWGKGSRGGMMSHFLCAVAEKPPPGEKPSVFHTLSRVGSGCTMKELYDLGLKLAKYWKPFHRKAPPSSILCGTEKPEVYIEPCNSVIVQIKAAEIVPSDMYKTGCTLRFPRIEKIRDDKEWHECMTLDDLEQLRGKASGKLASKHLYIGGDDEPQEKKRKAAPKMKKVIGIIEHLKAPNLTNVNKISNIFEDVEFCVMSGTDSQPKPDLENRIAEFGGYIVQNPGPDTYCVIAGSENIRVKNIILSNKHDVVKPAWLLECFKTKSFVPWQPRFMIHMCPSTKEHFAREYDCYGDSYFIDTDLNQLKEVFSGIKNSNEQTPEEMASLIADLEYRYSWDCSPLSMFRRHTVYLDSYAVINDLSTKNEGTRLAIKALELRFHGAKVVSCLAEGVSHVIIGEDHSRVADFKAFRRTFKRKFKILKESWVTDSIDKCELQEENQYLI
ligase IV, sequence (Q13426 whole entry partner): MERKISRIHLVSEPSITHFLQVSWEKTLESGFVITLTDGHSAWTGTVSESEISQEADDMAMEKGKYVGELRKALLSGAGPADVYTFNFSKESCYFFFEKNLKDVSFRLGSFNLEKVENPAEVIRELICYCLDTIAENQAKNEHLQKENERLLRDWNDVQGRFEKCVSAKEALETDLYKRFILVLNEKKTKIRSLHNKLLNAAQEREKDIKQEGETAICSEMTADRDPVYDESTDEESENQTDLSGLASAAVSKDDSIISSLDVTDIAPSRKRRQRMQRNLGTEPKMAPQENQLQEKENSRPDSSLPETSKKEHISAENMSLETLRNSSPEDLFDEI
Description: as §1

HepG2 cells = experiment: Apoptosis, annexin V/PI staining by flow cytometry; format: cell-based, human; conditions: HepG2, 24 h
Procedure: Quantitation of apoptotic cells by annexin V staining was carried out according to the manufacturer's instructions. Briefly, cells (5×10^5 cells/well) were seeded in 6 well plates and treated with 5 μM of 8h-8k for 24 h. After incubation, cells were washed with PBS and stained with 1.25 μL of annexin V-FITC and 10 μL of media binding reagent and incubated for 20 min. After that 10 μL of PI was added and samples were analyzed using a flow cytometer. Annexin V-FITC was analyzed using excitation and emission settings of 488 nm and 535 nm (FL-1 channel); PI, 488 nm and 610 nm (FL-2 channel). Debris and clumps were gated out using forward and orthogonal light scatter. Each experiment was repeated two times independently. Results are illustrated in FIG. 1 and the percentage of Annexin-V/PI positive cells increased gradually from 20 to 70% after 24 h of treatment (FIG. 1).

hLig1-DNA complex = hLig1-DNA complex (Homo sapiens, UniProt P18858); experiment: Electrophoretic mobility shift assay (EMSA); format: binding; conditions: 25, 50 and 100 μM; hLig1 10 pmol, DNA 1 pmol
hLig1-DNA complex, sequence (P18858 whole entry, one chain of several): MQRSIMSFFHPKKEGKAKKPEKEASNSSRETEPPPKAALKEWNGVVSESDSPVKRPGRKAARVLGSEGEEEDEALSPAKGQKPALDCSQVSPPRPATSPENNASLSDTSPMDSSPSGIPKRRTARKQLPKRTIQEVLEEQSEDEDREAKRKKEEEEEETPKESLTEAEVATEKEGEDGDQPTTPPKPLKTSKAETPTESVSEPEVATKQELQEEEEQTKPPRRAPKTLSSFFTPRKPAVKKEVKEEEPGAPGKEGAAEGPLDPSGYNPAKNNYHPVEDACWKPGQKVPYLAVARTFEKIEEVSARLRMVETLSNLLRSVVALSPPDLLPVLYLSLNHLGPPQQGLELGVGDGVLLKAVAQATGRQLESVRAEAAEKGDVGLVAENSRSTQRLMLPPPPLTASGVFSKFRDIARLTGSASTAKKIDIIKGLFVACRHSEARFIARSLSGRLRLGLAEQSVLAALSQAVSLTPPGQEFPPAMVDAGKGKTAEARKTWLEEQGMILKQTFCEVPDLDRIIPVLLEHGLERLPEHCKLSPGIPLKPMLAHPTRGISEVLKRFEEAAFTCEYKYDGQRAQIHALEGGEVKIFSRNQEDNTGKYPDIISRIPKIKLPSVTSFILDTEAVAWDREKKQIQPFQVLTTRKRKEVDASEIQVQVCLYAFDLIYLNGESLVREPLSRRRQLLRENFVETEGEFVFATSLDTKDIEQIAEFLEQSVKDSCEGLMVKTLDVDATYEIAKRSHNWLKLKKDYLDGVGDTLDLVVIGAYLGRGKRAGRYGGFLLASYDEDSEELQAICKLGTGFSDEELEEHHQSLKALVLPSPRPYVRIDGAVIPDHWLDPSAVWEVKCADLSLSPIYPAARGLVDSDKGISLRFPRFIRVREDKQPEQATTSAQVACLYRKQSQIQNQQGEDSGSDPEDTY
Procedure: EMSA was performed as described in Xi Chen et. al, Cancer Res 2008; 68(9):3169-3177 with some modifications, for the interaction study between 8k and hLig1. Of the three oligos used to construct the DNA substrate, one was a 5′-FAM labelled 27-mer oligo with a dideoxy modified 3′ end. Other two oligos of 25-mer and 52-mer were used. These oligos were annealed to obtain a non-ligatable nicked DNA substrate which the ligase enzyme can recognize and bind to, but cannot ligate or release from it. […] Lanes 3-5 (FIG. 6A) contain increasing concentrations of the inhibitor. A shift in signal is seen is lanes 3-5. This shift in the ligase-DNA complex can occur only if the inhibitor binds to the complex of hLig1+DNA and increases the size of the complex. If inhibitor binds to ligase alone, then we would expect fewer signals in lanes 3-5. But since we see an increase in intensity of signal as well as a super-shift in the signal, we can reliably say that the inhibitor binds to the DNA-ligase complex and not separately to either DNA or ligase.

hLig1, sequence (P18858 whole entry): as the sequence (P18858 whole entry, one chain of several) above

## CCCCCCCCCCCC[N+](C)(CCCCCCCCCCCC)CC(=O)NC1CCC(=O)N(CC(=O)c2ccccc2)C1=O (centres unmarked) [Compound 8k, {[2,6-Dioxo-1-(2-oxo-2-phenyl-ethyl)-piperidin-3-ylcarbamoyl]-methyl}-Didodecyl-methyl-ammonium iodide]
hLig1
  mode of inhibition by enzyme kinetics: un-competitively
Ligase IIIβ; 5 μM
  inhibition at 5 µM: < 50%
Ligase IIIβ; at concentrations that kill HepG2 cells
  ligase III inhibition: 30%
caspase-3 in HepG2 cells
  caspase-3 activation: activated the caspase-3 in HepG2 cells dose dependently; also recorded: activated the casepase-3 in HepG2 cells dose dependently
Ligase IV; 5 μM
  inhibition of ligase IV: No appreciable inhibition
Ligase IV; even at higher concentrations
  effect on ligase IV activity: no effect
HepG2 cells
  apoptosis induction (in words): induced significant amount of apoptosis
hLig1-DNA complex
  mode of inhibition by EMSA: un-competitive mode of inhibition
